The values below come from patent publication US20250154288A1, “CYTOTOXICITY TARGETING CHIMERAS FOR C-C CHEMOKINE RECEPTOR 2-EXPRESSING CELLS” (GLAXOSMITHKLINE INTELLECTUAL PROPERTY DEVELOPMENT LIMITED, priority 2022, published 2025).

For test [1], the target named is human alpha1 nicotinic acetylcholine (nACh) receptor (Homo sapiens, UniProt P02708+Q07001). The test is described as follows: Nicotinic Acetylcholine Receptor Antagonism Assay (IONFlux automated patch clamp). It is filed as cell-based. The procedure, abridged: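 Human α1 nAChR-expressing cells were exposed to compound in dose response (top concentration 10 μM or 100 μM), then stimulated with 10 mM ACh. Peak currents were recorded by IONFlux automated patch clamp. Inhibition versus ACh alone was vehicle- and run-down-corrected and fit nonlinearly for IC50, with recordings below 500 pA control current excluded.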
human alpha1 nicotinic acetylcholine (nACh) receptor, sequence (P02708 21-457): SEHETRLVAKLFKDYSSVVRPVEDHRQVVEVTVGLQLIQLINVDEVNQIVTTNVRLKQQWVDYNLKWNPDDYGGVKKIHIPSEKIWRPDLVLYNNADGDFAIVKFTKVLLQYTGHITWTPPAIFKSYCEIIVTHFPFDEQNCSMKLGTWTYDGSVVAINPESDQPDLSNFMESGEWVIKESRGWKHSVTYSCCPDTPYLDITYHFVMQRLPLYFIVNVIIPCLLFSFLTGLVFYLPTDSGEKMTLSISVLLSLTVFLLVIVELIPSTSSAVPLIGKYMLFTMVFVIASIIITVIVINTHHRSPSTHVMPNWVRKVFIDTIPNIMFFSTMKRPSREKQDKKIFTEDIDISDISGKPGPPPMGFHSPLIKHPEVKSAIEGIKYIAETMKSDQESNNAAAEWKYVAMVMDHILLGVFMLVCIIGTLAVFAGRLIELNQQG
human alpha1 nicotinic acetylcholine (nACh) receptor, sequence (P11230 24-501 partner): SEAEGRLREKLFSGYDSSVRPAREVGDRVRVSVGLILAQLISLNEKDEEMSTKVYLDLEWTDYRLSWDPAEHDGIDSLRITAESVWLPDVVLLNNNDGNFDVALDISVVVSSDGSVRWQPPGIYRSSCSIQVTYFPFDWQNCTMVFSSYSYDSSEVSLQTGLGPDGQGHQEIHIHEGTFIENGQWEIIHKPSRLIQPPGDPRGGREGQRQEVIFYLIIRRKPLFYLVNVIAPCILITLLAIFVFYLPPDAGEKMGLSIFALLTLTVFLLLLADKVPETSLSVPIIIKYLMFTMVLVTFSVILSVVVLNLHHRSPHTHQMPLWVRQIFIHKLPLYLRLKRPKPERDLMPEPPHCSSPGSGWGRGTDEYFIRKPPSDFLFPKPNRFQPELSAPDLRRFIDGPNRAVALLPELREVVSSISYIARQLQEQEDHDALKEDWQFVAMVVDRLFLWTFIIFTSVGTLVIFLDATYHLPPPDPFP
human alpha1 nicotinic acetylcholine (nACh) receptor, sequence (Q07001 22-517): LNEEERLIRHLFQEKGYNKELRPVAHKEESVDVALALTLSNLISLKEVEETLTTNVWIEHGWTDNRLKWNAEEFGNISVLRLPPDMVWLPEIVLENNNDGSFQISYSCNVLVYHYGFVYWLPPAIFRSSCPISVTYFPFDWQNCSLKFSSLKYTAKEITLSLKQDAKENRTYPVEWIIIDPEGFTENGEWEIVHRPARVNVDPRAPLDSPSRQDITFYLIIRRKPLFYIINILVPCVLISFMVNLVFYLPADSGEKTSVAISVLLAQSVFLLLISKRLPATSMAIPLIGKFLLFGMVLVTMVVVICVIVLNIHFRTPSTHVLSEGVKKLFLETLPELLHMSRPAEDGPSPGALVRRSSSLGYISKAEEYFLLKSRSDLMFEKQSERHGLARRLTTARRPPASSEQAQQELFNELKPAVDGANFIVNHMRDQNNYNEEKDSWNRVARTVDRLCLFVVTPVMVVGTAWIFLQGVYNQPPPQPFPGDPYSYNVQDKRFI
A general note: In patch-clamp work, channel activity is measured electrically.

For test [2], the target named is Anti-cotinine antibody (SEQ ID NO: 11 / SEQ ID NO: 12). The test is described as follows: Binding of Anti-Cotinine Antibody to ARM Compounds measured by Surface Plasmon Resonance (SPR). More on the design: species or system rabbit variable region with human IgG1 Fc domain. The following applies: Biacore T200, 37° C., Kd = koff/kon, average if several runs. As for the experimental part: Anti-cotinine antibodies having a heavy chain sequence of SEQ ID NO: 11 and a light chain sequence of SEQ ID NO: 12 (rabbit variable region with human IgG1 Fc domain containing a DE mutation (S239D/I332E)) were captured on one or more flow cells of a protein A sensor chip (Cytiva) using a Biacore T200 while reserving flow cell 1 as a reference. Following capture, a 3000 second wait step was included to reduce drift during compound analysis. ARM compounds of Formula (I) were then injected at 100 μL/min with 200 and 2000 second association and dissociation times. The entire experiment was run at 37° C. with running buffer containing 10 mM HEPES pH 7.4, 150 mM NaCl, 0.005% P20 and 1% DMSO. ARM compounds of Formula (I) were titrated with a top concentration of 200 nM using a 3-fold 5-point dilution series and a corresponding 5-injection buffer cycle was run for blank subtraction. Data were double referenced by subtracting the response of the reference flow cell from that of the antibody-containing flow cell and subsequently subtracting the referenced blank sensorgrams. Following compound analysis, the surface was regenerated using a 30 second injection of pH 1.5 glycine at a flow rate of 30 μL/min after which antibody was re-captured. The experiment was run using Biacore T200 control software and evaluated using Biacore T200 Evaluation software. Curves were fit with a 1:1 kinetic binding model to obtain kon(1/Ms), koff(1/s), Kd (M) determined as koff/kon, and residence time determined as 1/koff. (s).
Anti-cotinine antibody was tested for binding to ARMs compounds of Formula (I) of the invention in the above assay in or more experimental runs and the results are shown in Table 5 below. Affinity is reported as a pKd value. The pKd value is the negative log of the Kd value, wherein the Kd value is the dissociation constant measured in molar (M) as noted above. For compounds tested in more than one experimental run, the pKd value is reported as an average
On the technique in general: Surface plasmon resonance follows binding to a sensor surface in real time, without labels.

Test [3] concerns the target T1, CHOK1 cells engineered to overexpress human CCR2 (Homo sapiens, UniProt P41597).
T1 construct: expressed in transfected cells; host or cells: CHOK1
The test is described as follows: Antibody Dependent Cellular Cytotoxicity (ADCC) Reporter Assay. It is filed as cell-based. The following applies: with anti-cotinine antibody (human IgG1 Fc, S239D/I332E); Jurkat FcγRIIIa NFAT-luciferase reporter cells; average if several runs; read-out: ADCC Reporter Assay pEC50 (converted). The method in brief: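 CHOK1-hCCR2 target cells co-incubated ~12-18 h with compound (1 pM–10 μM), anti-cotinine rabbit/human IgG1 S239D/I332E antibody (0.01–200 μg/mL) and Jurkat FcγRIIIa NFAT-luciferase reporter cells. Luminescence signal:background versus no-compound wells; EC50 from four-parameter fit, reported as pEC50, averaged over runs.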
On the technique in general: In a reporter assay the amount or activity of a reporter protein is the signal.

In the case of `CO[C@@H]1COCC[C@@H]1N[C@@H]1CC[C@](CCCNC(=O)[C@H]2CC[C@H](NC(=O)CCCO[C@H]3CC[C@H](OCCNC(=O)[C@H]4CC(=O)N(C)[C@@H]4c4cccnc4)CC3)CC2)(C(=O)N2CCc3ncc(C(F)(F)F)cc3C2)C1` [Example 3, (2S,3S)-N-(2-(((1R,4S)-4-(4-(((1S,4R)-4-((3-((1S,3R)-3-(((3S,4S)-3-Methoxytetrahydro-2H-pyran-4-yl)amino)-1-(3-(trifluoromethyl)-5,6,7,8-tetrahydro-1,6-naphthyridine-6-carbonyl)cyclopentyl)propyl)carbamoyl)cyclohexyl)amino)-4-oxobutoxy)cyclohexyl)oxy)ethyl)-1-methyl-5-oxo-2-(pyridin-3-yl)pyrrolidine-3-carboxamide], the IC50 in test [1] (antagonism of nAChR stimulated with acetylcholine, average if several runs) is > 100000 nM. For the same compound, the Emax at 100 µM in test [1] (maximum percentage antagonism at Maximum Concentration of Compound Tested 100 μM, read-out: Maximum Response (%)) was 38%. For the same compound, the “pKd of Antibody for ARM Compound of Formula (I)” value in test [2] came out at 9.1. For the same compound, the EC50 in test [3] was 0.631 nM.

In general, IC50 refers to the concentration that inhibits the measured activity by half.
